Data: US20240358843A1, “LIGAND-DRUG CONJUGATE AND USE THEREOF” (priority 2021, published 2024)
Starred links: 1 amine or outer side, 2 acyl side, 3 side chain; linkers in the order of their positions; H or OH if unused. Residues, ends and D or L forms follow the SMILES beside them. *: point of attachment. X1 = CC[C@@]1(O)C(=O)OCc2c1cc1n(c2=O)Cc2c-1nc1cc(F)c(C)c3c1c2[C@@H](NC(=O)CNC(=O)[C@H](Cc1ccccc1)NC(=O)CNC(=O)CNC(=O)CCCCC(=O)*)CC3; Pteroyl = Nc1nc2ncc(CNc3ccc(C(=O)*)cc3)nc2c(=O)[nH]1; γGlu = O=C(O)[C@H](CCC(=O)[*:2])N[*:1]

Legend:
[1] = Safety evaluation in ICR mice; assay type: in vivo
Method: Experiment purpose: Safety evaluation of CR194AX in ICR mice
Sample preparation: An appropriate amount of CR194AX was weighed and dissolved in PBS, and an appropriate amount of alkaline solution was added to formulate a sample mother solution with a neutral pH, which was filtered and diluted with filtered PBS to a sample solution with a working concentration for later use.
Experimental design: ICR mice (female, 6-8 weeks old, weighing about 25 g) were randomly grouped according to body weight, and the administration was started on the first day of grouping. The dosage was adjusted according to the latest body weight of the mice, and the administration was performed via tail vein injection at an administration volume of 10 μl/g. After grouping and administration, the effects of the drugs on the normal behaviors of the animals, including the activity, food intake and drinking status, body weight, eyes, hair, feces, secretions and other abnormalities of the experimental animals, were tested. The body weight of the mice was measured twice a week and observed for 8 days after the last administration. At the end of the experiment, the liver and spleen were weighed, and the liver, spleen, lung, kidney and stomach were taken out and placed in 10% formalin neutral fixative for HE analysis. Sample preparation: An appropriate amount of the compound was weighed and dissolved in PBS, and an appropriate amount of alkaline solution was added to formulate a sample mother solution with a neutral pH, which was filtered and diluted with filtered physiological saline to a sample solution with a working concentration for later use.

SK-BR-3 cells [2] = test: Cell expansion inhibition assay (CCK-8, 72 h), Table 3; assay type: cell-based, human; details: FOLR1 low expression
Method: (§1) Cell lines: HEK293T-FOLR1 (a stably transformed cell line overexpressing FOLR1), SK-BR-3 (human breast cancer cell) and HEK293T (human embryonic kidney cell).
(§2) Main reagents: 1640 folic acid-free medium, fetal bovine serum, penicillin-streptomycin solution, L-glutamine and CCK8.
(§3) (1) Cell plating: Cells were prepared in advance, digested with Trypsin, collected and counted. A complete cell culture medium was used to dilute HEK293T-FOLR1 and HEK293T cells to 6×10^3 cells/ml, and dilute SK-BR-3 cells to 1.5×10^4 cells/ml. 100 μl of diluted cell solution was added to each well of 96-well plates, and negative and blank control wells were set on each plate. The 96-well plates added with the cells were placed in an incubator at 37° C., 5% CO2 for culturing overnight.
(§4) (2) Diluting and adding samples: The samples were serially diluted with medium (the starting concentration was 30 μM, 5-fold serial dilution), and a total of 10 concentration gradients were set. To each well of the 96-well plates that were cultured overnight, 50 μl of the diluted samples were added, with 3 replicate wells; negative controls and blank controls were set; and the plates were placed in an incubator at 37° C., 5% CO2 for culturing 72 h.
(§5) (3) Color development and reading plate: To each well, 15 μl (10% of the liquid volume in a well) of a color developing solution from CCK-8 was added; the plates were incubated at 37° C. for an appropriate time (try to keep the OD value in the range of 1.0-2.5); the covers of the 96-well plates were removed, and the plates were read at 450 nm on a microplate reader (Molecular Devices SpectraMax iD5).
(§6) (4) Data processing: The data was edited using SoftMax Pro 7.1 and a four-parameter fitting curve was plotted.

HEK293T cells = test: as above; assay type: cell-based, human; details: no visible FOLR1 expression
Method: as §1, §2, §3, §4, §5, §6

HEK293T-FOLR1 cells [3] = test: as above; assay type: cell-based, human; details: FOLR1 high expression
Method: as §1, §2, §3, §4, §5, §6

SK-BR-3 cells [4] = test: Cell expansion inhibition assay (CCK-8, 72 h), Table 4; assay type: cell-based, human
Method: (§7) Cell lines: HEK293T-FOLR1 (a stably transformed cell line overexpressing FOLR1), SK-BR-3 (human breast cancer cell with low expression of FOLR1) and MIA PaCa2 (human pancreatic cancer cell without expression of FOLR1).
as §2
(§8) (1) Cell plating: Cells were prepared in advance, digested with Trypsin, collected and counted. A complete cell culture medium was used to dilute SK-BR-3 cells to 3.0×10^4 cells/ml, HEK293T-FOLR1 cells to 1.5×10^4 cells/ml, and MIA PaCa-2 cells to 2.0×10^4 cells/ml. 100 μl of diluted cell solution was added to each well of 96-well plates, and negative and blank control wells were set on each plate. The 96-well plates added with the cells were placed in an incubator at 37° C., 5% CO2 for culturing overnight.
as §4, §5, §6

HEK293T-FOLR1 cells [5] = test: as above; assay type: cell-based, human
Method: as §7, §2, §8, §4, §5, §6

MIA PaCa2 cells = test: as above; assay type: cell-based, human; details: without expression of FOLR1, read-out: MIAPACA-2 IC50
Method: as §7, §2, §8, §4, §5, §6

[6] = 50 mg/kg, qw*3 and q3d*6, tail vein

For `CC[C@@]1(O)C(=O)OCc2c1cc1n(c2=O)Cc2c-1nc1cc(F)c(C)c3c1c2[C@@H](NC(=O)CNC(=O)[C@H](Cc1ccccc1)NC(=O)CNC(=O)CNC(=O)CCCCC(=O)NCCCC[C@H](NC(=O)[C@H](CS)NC(=O)CC[C@H](NC(=O)c1ccc(NCc2cnc4nc(N)nc(O)c4n2)cc1)C(=O)O)C(=O)N[C@@H](CCC(=O)O)C(=O)N[C@@H](Cc1ccccc1)C(=O)N[C@@H](CC(C)C)C(=O)N[C@@H](Cc1c[nH]cn1)C(=O)N1CCC[C@H]1C(=O)N[C@@H](CO)C(=O)N[C@@H](CCCCN)C(=O)N[C@H](C(=O)N[C@@H](CC(=O)O)C(=O)N[C@@H](CC(C)C)C(=O)N1CCC[C@H]1C(=O)N[C@@H](CCCNC(=N)N)C(=O)O)C(C)C)CC3` [CR194AX] ({Pteroyl-γGlu}-CK(X1)EFLHPSKVDLPR-OH), the “average weight loss of the mice” value ([1]; 25 mg/kg q3d*6, tail vein) was no more than 5%, the “mortality during the administration” value ([1]; 25 mg/kg q3d*6, tail vein) was “no mice died” and the tolerance ([1]; 25 mg/kg q3d*6, tail vein) was “good tolerance”. The “average weight loss of the mice” value [1, 6] was no more than 10%, the “mortality during the administration period” value [1, 6] was “no mice died” and the tolerance [1, 6] was “good tolerance”. The “weights of the liver and spleen compared with the negative control group” value ([1]; each administration group, end of experiment) was “no significant difference”.
Compound `CC[C@@]1(O)C(=O)OCc2c1cc1n(c2=O)Cc2c-1nc1cc(F)c(C)c3c1c2[C@@H](N)CC3` [Dx] has an IC50 (SK-BR-3 cells [2]) of 0.599 nM, an IC50 (HEK293T cells) of 1.12 nM and an IC50 (HEK293T-FOLR1 cells [3]) of 1.02 nM. It also gave an IC50 (SK-BR-3 cells [4]) of 0.569 nM, an IC50 (HEK293T-FOLR1 cells [5]) of 0.995 nM and an IC50 (MIA PaCa2 cells) of 5.53 nM.
`CC[C@@]1(O)C(=O)OCc2c1cc1n(c2=O)Cc2c-1nc1cc(F)c(C)c3c1c2[C@@H](NC(=O)CO)CC3` [Dxd] showed an IC50 (HEK293T-FOLR1 cells [5]) of 1.68 nM and an IC50 (MIA PaCa2 cells) of 111 nM.
`CCc1c2c(nc3ccc(O)cc13)-c1cc3c(c(=O)n1C2)COC(=O)[C@]3(O)CC` [SN38] showed an IC50 (SK-BR-3 cells [4]) of 0.947 nM, an IC50 (HEK293T-FOLR1 cells [5]) of 0.943 nM and an IC50 (MIA PaCa2 cells) of 7.03 nM.
